Measurements published in patent US8022205B2, “Pyrimidine derivatives as PI3K inhibitor and use thereof” (Chugai Seiyaku Kabushiki Kaisha, priority 2006, dated 2011).
Structures can show the parent of a compound that is named as a salt.

Tests used:
[1] = target: human PI3K(p110α/p85α) (Homo sapiens, UniProt P42336); assay: Measurement of PI3K inhibitory activity (AlphaScreen GST Detection Kit); assay type: biochemical; details: 10 μM ATP, 4 μM PI(4,5)P2, read-out: Enzyme inhibitory activity (IC50, μM) PI3K α
Method: The inhibitory activity of compounds of the present invention represented by formula (I) were measured with human PI3K(p110α/p85α) prepared in a baculovirus expression system using the AlphaScreen GST Detection Kit (Perkin Elmer, Inc.). A predetermined concentration of the compound dissolved in dimethylsulfoxide (DMSO) and PI3K were mixed in a 384-well assay plate and after allowing to stand for 20 minutes at room temperature, 4 μM PI(4,5)P2 (Echelon Corporation) and 10 μM ATP (5 mM Hepes, pH 7.5, 2.5 mM MgCl2) were added to initiate the reaction. After reacting for 15 minutes at 37° C., GST-GRP1 expressed and purified from Escherichia coli, Anti-GST Acceptor Beads (Perkin Elmer, Inc.), Streptavidin Donor Beads (Perkin Elmer, Inc.) and biotin-PI(3,4,5) P3 (Echelon Corporation) (10 mM Tris-HCl pH 7.4, 150 mM NaCl, 7.5 mM EDTA, 1 mM DTT, 0.1% Tween 20) were added, and after allowing to stand for 1 hour at room temperature, light at 520 to 620 nm emitted as a result of exciting with light at 680 nm was measured with the Envision measuring instrument (Perkin Elmer, Inc.).
Test Example 1 described above can be performed according to “Analytical Biochemistry, 2003, 313, 234-245; Alexander Gray et al”.

[2] = tested on: human lung cancer cell line NCI-H460; assay: Cell proliferation inhibitory activity (Cell Counting Kit-8), lung cancer NCI-H460; assay type: cell-based; details: 96 h, NCI-H460, 4 days, read-out: Cell proliferation inhibitory activity (% Inhibition at 2.5 μM) Non-small cell lung cancer (NCI-H460)
Method: (§1) The cell proliferation inhibitory activity was measured for compounds of the present invention represented by formula (I). Cancer cell proliferation inhibitory activity was measured using the Cell Counting Kit-8 (Dojindo). 2000 cells each of human colon cancer cell line HCT116 purchased from the American Type Culture Collection (Virginia, USA) were seeded into each well of a 96-well culture plate followed by the addition of a predetermined concentration of the compounds and cultivating in a CO2environment for 4 days at 37° C. On the fourth day of cultivating, the Cell Counting Kit-8 solution was added and absorbance (measuring wavelength: 450 nm, reference wavelength: 615 nm) was measured in accordance with the protocol provided with the kit.
(§2) Cancer cell proliferation inhibitory activity was also measured for human lung cancer cell line NCI-H460 and human prostate cancer cell line PC3 purchased from the American Type Culture Collection. 1000 and 3000 cells of NCI-H460 and PC3, respectively, were seeded into each well of a 96-well culture plate followed by testing in the same manner as the human colon cancer cell line and calculating the percentage of cell proliferation inhibition at 2.5 μM.

[3] = tested on: human prostate cancer cell line PC3; assay: Cell proliferation inhibitory activity (Cell Counting Kit-8), prostate cancer PC3; assay type: cell-based; details: 96 h, PC3, 4 days
Method: as §1, §2

[4] = tested on: human colon cancer cell line HCT116; assay: Cell proliferation inhibitory activity (Cell Counting Kit-8), colon cancer HCT116; assay type: cell-based; details: HCT-116, 96 h, HCT116, 4 days
Method: as §1

Sequence of human PI3K(p110α/p85α) (P42336 whole entry): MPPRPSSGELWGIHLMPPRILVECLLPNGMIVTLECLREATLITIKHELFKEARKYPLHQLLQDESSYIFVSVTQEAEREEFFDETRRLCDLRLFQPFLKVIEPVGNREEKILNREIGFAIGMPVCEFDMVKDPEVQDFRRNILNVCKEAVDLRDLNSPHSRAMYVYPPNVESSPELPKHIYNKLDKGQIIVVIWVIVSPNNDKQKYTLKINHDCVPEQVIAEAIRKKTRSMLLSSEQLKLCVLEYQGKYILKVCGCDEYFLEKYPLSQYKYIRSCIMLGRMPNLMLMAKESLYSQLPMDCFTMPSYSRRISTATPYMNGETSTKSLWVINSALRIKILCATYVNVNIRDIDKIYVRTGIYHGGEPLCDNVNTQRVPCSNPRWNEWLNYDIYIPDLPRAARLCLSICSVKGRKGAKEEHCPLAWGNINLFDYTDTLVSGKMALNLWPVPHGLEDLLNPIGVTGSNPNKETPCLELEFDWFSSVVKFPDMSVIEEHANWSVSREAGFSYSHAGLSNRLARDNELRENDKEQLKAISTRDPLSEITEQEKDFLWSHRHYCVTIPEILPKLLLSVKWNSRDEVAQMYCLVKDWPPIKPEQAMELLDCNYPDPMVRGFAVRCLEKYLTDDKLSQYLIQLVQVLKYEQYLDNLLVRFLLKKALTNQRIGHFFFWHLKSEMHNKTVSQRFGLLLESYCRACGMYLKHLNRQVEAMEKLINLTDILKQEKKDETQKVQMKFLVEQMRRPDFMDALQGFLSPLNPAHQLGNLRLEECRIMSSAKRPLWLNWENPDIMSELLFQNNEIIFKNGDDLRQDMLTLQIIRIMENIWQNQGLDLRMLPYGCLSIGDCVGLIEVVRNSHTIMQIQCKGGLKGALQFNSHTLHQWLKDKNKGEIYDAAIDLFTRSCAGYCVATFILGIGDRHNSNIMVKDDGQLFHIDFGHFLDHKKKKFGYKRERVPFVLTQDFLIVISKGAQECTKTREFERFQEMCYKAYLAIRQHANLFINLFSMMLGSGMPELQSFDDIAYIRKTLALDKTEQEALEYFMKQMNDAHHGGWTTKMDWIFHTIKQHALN
Sequence of human PI3K(p110α/p85α) (P27986 whole entry partner): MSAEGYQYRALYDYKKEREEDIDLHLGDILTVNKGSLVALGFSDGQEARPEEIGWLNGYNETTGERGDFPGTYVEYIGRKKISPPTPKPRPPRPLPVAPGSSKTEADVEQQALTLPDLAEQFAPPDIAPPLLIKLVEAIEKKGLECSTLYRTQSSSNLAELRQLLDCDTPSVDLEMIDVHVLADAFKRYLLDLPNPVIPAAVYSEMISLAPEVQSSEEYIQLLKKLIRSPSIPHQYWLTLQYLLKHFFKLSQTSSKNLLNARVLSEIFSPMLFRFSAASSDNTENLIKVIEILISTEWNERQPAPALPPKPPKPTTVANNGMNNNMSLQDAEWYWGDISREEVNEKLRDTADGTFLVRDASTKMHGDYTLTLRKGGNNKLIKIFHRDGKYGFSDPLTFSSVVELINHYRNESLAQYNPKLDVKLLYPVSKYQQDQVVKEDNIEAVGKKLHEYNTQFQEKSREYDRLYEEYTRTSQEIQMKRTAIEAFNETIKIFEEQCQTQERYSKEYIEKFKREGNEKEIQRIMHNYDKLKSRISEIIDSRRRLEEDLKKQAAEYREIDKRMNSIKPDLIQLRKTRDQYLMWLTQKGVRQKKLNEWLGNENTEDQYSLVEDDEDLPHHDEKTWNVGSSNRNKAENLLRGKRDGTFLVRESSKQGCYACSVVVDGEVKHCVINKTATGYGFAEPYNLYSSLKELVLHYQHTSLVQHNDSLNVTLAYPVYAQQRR

SMILES	IC50 [1]	inhibition at 2.5 µM [2]	inhibition at 2.5 µM [3]	inhibition at 2.5 µM [4]
c1cc(N2CCc3c(-c4ccc5[nH]cnc5c4)nc(N4CCOCC4)nc32)ccn1 [Example B-22, 4-(1H-benzimidazol-5-yl)-2-morpholin-4-yl-7-pyridin-4-yl-6,7-dihydro-5H-pyrrolo[2,3-d]pyrimidine]	0.3 µM	72%	22%	71%
NCc1ccc(-c2nc(N3CCOCC3)nc3c2CCN3c2ccncc2)cc1 [Example B-32, 4-(2-Morpholin-4-yl-7-pyridin-4-yl-6,7-dihydro-5H-pyrrolo[2,3-d]pyrimidin-4-yl)-benzylamine hydrochloride]	0.47 µM	67%	29%	78%
OCc1cc(-c2nc(N3CCOCC3)nc3c2CCN3c2ccncc2)ccc1F [Example B-35, [2-Fluoro-5-(2-morpholin-4-yl-7-pyridin-4-yl-6,7-dihydro-5H-pyrrolo[2,3-d]pyrimidin-4-yl)-phenyl]-methanol]	0.87 µM	71%	61%	78%
Nc1ccc(-c2nc(N3CCOCC3)nc3c2CCN3c2ccncc2)nc1 [Example B-55, 6-(2-Morpholin-4-yl-7-pyridin-4-yl-6,7-dihydro-5H-pyrrolo[2,3-d]pyrimidin-4-yl)-pyridin-3-ylamine]	0.34 µM	58%	47%	79%
CNC(=S)N1CCc2c(-c3cccc(O)c3)nc(N3CCOCC3)nc21 [Example C-55, 4-(3-Hydroxy-phenyl)-2-morpholin-4-yl-5,6-dihydro-pyrrolo[2,3-d]pyrimidine-7-carbothioic acid methylamide trifluoroacetic acid salt]	0.05 µM	89%	87%	72%

Second part, led by results:

IC50 [1]	SMILES	inhibition at 2.5 µM [2]	inhibition at 2.5 µM [3]	inhibition at 2.5 µM [4]
0.04 µM	CC(=O)N1CCc2c(-c3cnc(N)nc3)nc(N3CCOCC3)nc21 [Example D-01, 1-[4-(2-Amino-pyrimidin-5-yl)-2-morpholin-4-yl-5,6-dihydro-pyrrolo[2,3-d]pyrimidin-7-yl]-ethanone]	92%	89%	83%
0.02 µM	CCNC(=O)N1CCc2c(-c3cnc(N)nc3)nc(N3CCOCC3)nc21 [Example D-03, 4-(2-Amino-pyrimidin-5-yl)-2-morpholin-4-yl-5,6-dihydro-pyrrolo[2,3-d]pyrimidine-7-carboxylic acid ethylamide]	92%	88%	92%
0.23 µM	Nc1ncc(-c2nc(N3CCOCC3)nc3c2CCN3c2cc(C(=O)N3CCOCC3)ccc2F)cn1 [Example D-16, {3-[4-(2-Amino-pyrimidin-5-yl)-2-morpholin-4-yl-5,6-dihydro-pyrrolo[2,3-d]pyrimidin-7-yl]-4-fluoro-phenyl}-morpholin-4-yl-methanone]	76%	73%	74%
0.024 µM	CCN1CCN(C(=O)c2ccc(C)c(NC(=S)N3CCc4c(-c5cnc(N)nc5)nc(N5CCOCC5)nc43)c2)CC1 [Example D-17, 4-(2-Amino-pyrimidin-5-yl)-2-morpholin-4-yl-5,6-dihydro-pyrrolo[2,3-d]pyrimidine-7-carbothioic acid [5-(4-ethyl-piperazine-1-carbonyl)-2-methyl-phenyl]-amide]	97%	93%	96%
0.022 µM	CCN1CCN(c2cc(F)c(NC(=O)N3CCc4c(-c5cnc(N)nc5)nc(N5CCOCC5)nc43)c(F)c2)CC1 [Example D-18, 4-(2-Amino-pyrimidin-5-yl)-2-morpholin-4-yl-5,6-dihydro-pyrrolo[2,3-d]pyrimidine-7-carboxylic acid [4-(4-ethyl-piperazin-1-yl)-2,6-difluoro-phenyl]-amide]	102%	93%	100%
